{"source": "patent US20090239884A1", "about": "“Methods of Treating Inflammation” (priority 2006, published 2009)", "key": {"bEnd.3 cells": {"tested_on": "bEnd.3 cells", "experiment": "intracellular cAMP ELISA in bEnd.3 cells", "format": "cell-based, mouse", "details": "DP 100 μM, IBMX 300 μM; for cAMP levels in bEnd.3 cells: 45 minutes", "description": "Intracellular cAMP ELISAs. Activated bEnd.3 cells were treated as described above for 20, 45, or 90 minutes. cAMP levels were determined with a Correlate cAMP ELISA kit (Assay Designs, Ann Arbor, Mich.) using an ELISA reader (Bio-Rad, Hercules, Calif.) at 405 nm.\nIn FIG. 23B, IBMX (300 μM), DP (100 μM), or vehicle (0.1% DMSO) were added to the bEnd.3 cells for the final 20, 45, and 90 minutes of TNF-α exposure and the cellular cAMP content analyzed by ELISA. The values are given as the mean±SEM of an experiment run in duplicate with the results representative of 2 independent experiments (*p<0.05, **p<0.001; one way ANOVA followed by Bonferroni t-test for comparisons between vehicle and DP or IBMX and an unpaired t-test for comparisons between DP and IBMX)."}, "CD4+CD25− T cells [1]": {"tested_on": "CD4+CD25− T cells", "experiment": "cAMP levels in CD4+CD25− T cells", "format": "cell-based, mouse", "details": "20 minutes of treatment; resolved by 90 minutes"}, "CD4+CD25− T cells [2]": {"tested_on": "CD4+CD25− T cells", "experiment": "[3H]thymidine proliferation assay of CD4+CD25− T cells", "format": "cell-based, mouse", "description": "Proliferation assays. T cell-depleted splenocytes (Tds) were obtained by negative selection with murine anti-CD4 and anti-CD8 microbeads (Miltenyi Biotec). Isolated CD4^+CD25^− T cells (5×10^4/well) were cultured in 96-well plates (Costar) with irradiated Tds (5×10^4/well) (2600 rad) in the presence or absence of soluble anti-CD3 mAb (0.7 μg/ml) (R&D Systems, Minneapolis, Minn.). DP (100 μM), IBMX (300 μM) or vehicle control (0.1% DMSO in media) were added at 0 hours. After 48 hours, 2 μCi per well of [^3H]thymidine (NEN, Waltham, Mass.) was added and cells were harvested 16 hours later using a semiautomated cell harvester and [^3H]thymidine incorporation determined by scintillation counting. Cell viability in suppression assays was determined using trypan blue (2.5%) at 64 hours of incubation.\nIn FIG. 22, purified CREM/ICER^+/+ or CREM/ICER^−/− derived CD4^+CD25^−T cells (5×10^4/well) were cocultured with irradiated T cell depleted splenocytes (5×10^4 well) presenting soluble anti-CD3 mAb (0.75 μg/ml) and the cultures were incubated with IBMX (300 μM), DP (100 μM), or vehicle (media) for 64 hours with [3H]thymidine added for the final 16 hours. The extent of proliferation was determined by [3H]thymidine incorporation at 64 hours and the data are presented as the mean cpm+SEM of an experiment run in triplicate. The results are representative of 2 independent experiments. […] (*p<0.05, **p<0.001; comparisons to vehicle were analyzed using a one way ANOVA followed by Bonferroni t-test and using an unpaired t-test for comparisons between DP and IBMX)."}, "[3]": {"tested_on": "unstimulated mouse splenocytes", "experiment": "transwell chemotaxis assay in response to CXCL12, unstimulated splenocytes", "format": "cell-based", "details": "Mus musculus, Splenocyte, 4 h; read-out: inhibition of CXCL12-induced migration", "description": "(§1) Isolation of murine splenocytes. Splenocytes were isolated from 6-8 week old C57BL/6 mice obtained from Jackson Laboratories (Bar Harbor, Me.). Spleens were removed and a single-cell suspension prepared using 40 μm cell strainers (Fisher Scientific). Cells were washed with RPMI 1640 medium supplemented with 5% fetal bovine serum, 2 mM L-glutamine, 100 U/ml penicillin and […] (all from GIBCO). Red blood cells were lysed using standard lysis buffer (0.15M NH4Cl, 10mM KHCO3, 0.1 mM EDTA PH 7.4). Cells were then washed and used in chemotaxis assays either as unstimulated cells or after stimulation with Con A ([…]) as indicated.\n(§2) Preparation of Test Reagents. […] This concentration of DMSO had no effect on migration of splenocytes in the presence or absence of CXCL12. CXCL12 was prepared as a 100 μg/ml stock solution in PBS+0.1% BSA, Con A was prepared as a stock of 2.5 mg/ml in PBS, and dibutyryl cAMP and Rp-cAMPS were prepared as 50 mM stock solutions in water, and these reagents were diluted directly into the chemotaxis assays.\n(§3) Chemotaxis Assay. Chemotaxis assays were done in 24-well transwell plates with a pore size of 5 μm (Costar, Corning). Splenocytes were placed in medium at a concentration of 3×10^6 cells/ml. Where test agents were used, splenocytes were pretreated with the agent or vehicle for 45 to 60 min, following which 100 μl of the splenocyte suspension was placed into the upper chamber of transwell plates, and the lower chamber was filled with 600 μl of medium. When added to induce migration, CXCL12 (250 ng/ml) was added to the lower chamber only. Other test reagents were added as indicated to both the upper and lower chambers. After 4 hours of incubation at 37° C. in 5% CO2, transwell inserts were gently removed and the number of cells that migrated into the lower chamber were counted by withdrawing 500 μl of lower chamber medium, mixing it with 10 ml of buffer and counting the cells on a Coulter Counter (Beckman Coulter Z series). Where results are expressed as % of CXCL12-stimulated migration, this was calculated as follows: (cells migrated in presence of CXCL12 and test reagent—cells migrated in medium alone)/(cells migrated in presence of CXCL12-cells migrated in medium alone)×100. Experimental points for all chemotaxis assays were performed in triplicate.\n(§4) Splenocytes isolated from mice were assayed for migration in response to CXCL12 (250 ng/ml), either directly (unstimulated) or following 48 hr of incubation with 3 μg/ml Con A (stimulated), as described in Methods. To test for effects of dibutyryl cAMP, cells were pretreated with dibutyryl cAMP (500 μM) for 45-60 min prior to beginning the chemotaxis assay, and the assays were conducted with dibutyryl cAMP (db-cAMP) present (500 μM) in both the upper and lower chambers of the transwell plates. Data plotted are derived from a single experiment performed in triplicate. *p<0.001; **p<0.02."}, "[4]": {"tested_on": "Con A-stimulated mouse splenocytes", "experiment": "transwell chemotaxis assay in response to CXCL12, Con A-stimulated splenocytes", "format": "cell-based", "details": "Mus musculus, Splenocyte, 4 h; read-out: inhibition of CXCL12-induced migration", "description": "as §1, §2, §3, §4"}, "[5]": {"details": "64 hours, DP 100 μM, IBMX 300 μM"}}, "note": "Entries after “also recorded” stand apart in the source; their conditions may differ."}
{"smiles": "OCCN(CCO)c1nc(N2CCCCC2)c2nc(N(CCO)CCO)nc(N3CCCCC3)c2n1", "note": "[Dipyridamole, 2,2′,2″,2′″-(4,8-di(piperidin-1-yl)pyrimido[5,4-d]pyrimidine-2,6-diyl)bis(azanetriyl)tetraethanol]", "values": [{"measurement": "cAMP levels in bEnd.3 cells", "setting": "bEnd.3 cells", "result": "significantly increased"}, {"measurement": "increase of cAMP levels in bEnd.3 cells", "setting": "bEnd.3 cells; within 20 minutes", "result": "over 2 fold"}, {"measurement": "cAMP in CD4+CD25− T cells", "setting": "CD4+CD25− T cells [1]", "result": "increase"}, {"measurement": "T cell proliferation ([3H]thymidine incorporation)", "setting": "CD4+CD25− T cells [2]; [5]", "result": "potently suppressed"}, {"measurement": "inhibition of proliferation, DP compared with IBMX", "setting": "CD4+CD25− T cells [2]; 64 hours, DP 100 μM, IBMX 300 μM, listed as DP", "result": "more potently than IBMX; also recorded: greater"}, {"measurement": "effect of Crem gene deletion (CREM/ICER−/− T cells) on DP mediated suppression of proliferation", "setting": "CD4+CD25− T cells [2]; DP 100 μM", "result": "did not affect"}, {"measurement": "viability of T cells", "setting": "CD4+CD25− T cells [2]; trypan blue at 64 hours, DP treatment", "result": "not affected"}, {"measurement": "inhibition at 100 µM", "setting": "[3]", "result": 55, "unit": "%"}, {"measurement": "inhibition at 100 µM", "setting": "[4]", "result": 54, "unit": "%"}]}
{"smiles": "CC(C)Cn1c(=O)n(C)c(=O)c2[nH]cnc21", "note": "[IBMX, 3-isobutyl-1-methylxanthine]", "values": [{"measurement": "cAMP levels in bEnd.3 cells", "setting": "bEnd.3 cells", "result": "significantly increased"}, {"measurement": "cAMP in CD4+CD25− T cells", "setting": "CD4+CD25− T cells [1]", "result": "increase"}, {"measurement": "T cell proliferation ([3H]thymidine incorporation)", "setting": "CD4+CD25− T cells [2]; [5]", "result": "potently suppressed"}, {"measurement": "inhibition at 300 µM", "setting": "[3]", "result": 57, "unit": "%"}, {"measurement": "inhibition at 300 µM", "setting": "[4]", "result": 21, "unit": "%"}]}
